Values of other authors, collected in US7311392B2, “Inkjet recording ink and method of inkjet recording” (Fujifilm Corporation, priority 2002, dated 2007).

Settings: 20° C.; water-miscible organic solvent of the ink

| Compound | Vapor Pressure [Pa] |
| --- | --- |
| COCC(C)O (centres unmarked) [Compound 1-Methoxy-2-propanol, 1-Methoxy-2-propanol] | 1013 (20° C.) Pa |
| CC(C)O [Compound 2-Propanol, 2-Propanol] | 4320 (20° C.) Pa |
| OCCOCCO [Diethylene glycol] | <1.3 (20° C.) Pa |
| OCC(O)CO [Glycerin] | 0.3 (20° C.) Pa |
| CCCCOCCOCCOCCO [Triethylene glycol monobutyl ether] | <1.3 (20° C.) Pa |
